Experiments:
BMDM = assay: Nrf2-dependent pathways in macrophages; type: cell-based, mouse; conditions: 50 μM
Method: The data is separately presented for each time point (No TNBS− Solid black line; Veh+TNBS− Solid red line; UroA+TNBS− Solid blue line; UAS03+TNBS− Solid purple line). The data is separately presented for each time point. (No TNBS− Solid black line; Veh+TNBS− Solid red line; UroA+TNBS− Solid blue line; UAS03+TNBS− Solid purple line). (C-G) UroA/UAS03 activate Nrf2-dependent pathways in BMDM. (C) Wild type BMDM were isolated and cultured for 7 days. BMDM were treated with Veh (0.01% DMSO) or UroA or UAS03 (50 μM) for 6 h and total RNA was isolated. Nrf2 levels were measured using SyBR green Real Time PCR method. (D) Veh or UroA or UAS03 treated BMDM cell lysates were immunoblotted for Nrf2. (E) The nuclear and cytosolic fractions of BMDMs were immnunobloted for Nr2. Lamin B and β-actin were used as normalizing proteins. […] The expression of Nrf2 was determined by immunofluorescence staining using anti-Nrf2 followed by secondary antibody tagged with Alexa-488 dye and DAPI was used to stain nucleus. The fluorescence images were captured using Nikon A1R confocal microscope at 60× magnification and green fluorescence (n=>15 cells) was measured using Nikon elements software. […] NF-κB activation was evaluated by EMSA assays. […] The fold change over basal was calculated using its own control. […]

Caco-2 monolayer cells = assay: Caco2 monolayer TEER and FITC-dextran permeability (EtOH, LPS, HMGB1); type: cell-based, human; conditions: for TEER / Ocln expression: EtOH 350 mM (2%); for TEER: 10, 25, 50 μM pre-treatment 24 h; for Ocln expression: 10, 25, 50 μM, 24 h
Method: FIG. 13: Caco2 cells were grown as monolayer on transwell membrane filters. (A) Cells were treated with 40 mM EtOH and FITC-dextran permeability was performed in time dependent manner. (B-F) Cells were treated with respective Urolithins (50 μM) and Ellagic acid (50 μM) or different doses of UroA (B) for 24 hrs. After treatments, cells were treated with ethanol (40 mM) (B, D) or 400 mM (E, F), LPS (100 ng/mL), HMGB1 (500 ng/mL) for 2 hrs and washed with PBS. FITC-Dex (1 mg/mL) solution was added (100 μl) on apical side. Permeability of FITC-Dex across the monolayer as well as TEER values were measured after 2 hr. […] Confocal images of TJ proteins staining. Statistics performed using unpaired t-test. *p<0.05, **p<0.01, *** p<0.001, Error bars, ±SEM.
Caco2 cells on transwell membrane were pre-treated with vehicle or UroA or UAS03 (10, 25, 50 μM) for 24 h followed by addition of alcohol (2%) for 24 h. TEER values (A) and the FITC-dextran permeability assay (B) was performed as described in FIG. 2. Statistics performed using unpaired t-test using Graphpad Prism software. Error bars, ±SEM; ***p<0.001; **p<0.01. (C) Caco2 cells were treated with alcohol (EtOH) (350 mM or 2%) in the presence or with UroA or UAS03 (10, 25, 50 μM) for 24 h and determined expression of Ocln by Western blots. Representative of 3 independent blots was shown.
UroA upregulate TJ proteins and protect against EtOH induced damage. […] For this purpose, we utilized Caco-2 monolayer cells on transwell membranes and performed transepithelial electrical resistance (TEER) and FITC-dextran permeability assays. […] Gut barrier dysfunction leads to elevated intestinal permeability thus increasing circulating levels of endotoxins. Endotoxins such as LPS (representative for PAMP) and HMGB1 (representative for DAMP) induce several inflammatory cytokines, chemokines and ROS leading to further enhancement of systemic inflammation to promote pathogenesis of ALD.
We tested whether UAS03 could protect against higher dose of EtOH (350 mM) induced barrier dysfunction in Caco2 monolayer cells.

| Structure (SMILES) | Nrf2 expression, nuclear translocation and HO1 in macrophages (BMDM) | TEER (Caco-2 monolayer cells) | Ocln expression (Caco-2 monolayer cells) | TEER values (Caco-2 monolayer cells; EtOH 400 mM) | EtOH induced damage of tight junction proteins (ZO-1, Ocln) (Caco-2 monolayer cells; Western blots, confocal images) |
| --- | --- | --- | --- | --- | --- |
| Oc1ccc2c(c1)COc1cc(O)ccc1-2 [UAS03, 6H-benzo[c]chromene-3,8-diol] | upregulated Nrf2 expression and induced its nuclear translocation | increased TEER | increased TJ protein |  |  |
| O=c1oc2cc(O)ccc2c2ccc(O)cc12 [UroA, 3,8-dihydroxy-6H-dibenzo[b,d]pyran-6-one] | upregulated Nrf2 expression and induced its nuclear translocation | increased TEER | increased TJ protein | enhanced TEER values | protects against EtOH induced damage of tight junction proteins |
